Entries after “also recorded” stand apart in the source; their conditions may differ.
What was measured:
[1] = system: LPS-induced acute inflammation; test: LPS-induced septic shock mouse model, cytokine expression in serum (ELISA) and colonic mucosa (qPCR); assay type: in vivo
Procedure: FIG. 4A, and FIG. 4B depict results showing that compound 22 (CLM-022) decreased the production of pro-inflammatory cytokines in the LPS-induced septic shock mouse model as described in Example 17. Compound 1 (CLM-001) and compound 22 (CLM-022) (1 mg/kg) injected intraperitoneally 1 hour prior to septic shock induction by administering sublethal dose of LPS (25 mg/kg, i.p.), mice were sacrificed 4 hours post LPS injection, and subjected to measurement of inflammatory cytokine expression. FIG. 4A depicts plot of data showing that the level of TNF-α decreased in the serum of compound 1 and compound 22 treated mice.
This example illustrates a study of the inhibitory function of an exemplary celastrol derivative of the present disclosure (compound 22) against LPS-induced acute inflammation in vivo, we set up LPS-induced septic shock mouse model (Yu et al., 2017) and detected the expression levels of inflammatory cytokines in colon.
Mice (n=3 per group) were administered intraperitoneally (i.p.) with control vehicle, compound 1 (1 mg/kg), or compound 22 (1 mg/kg). After 1 hour, mice were administered by i.p. injection a sublethal dose of LPS (25 mg/kg). Four hours later, the mice were subjected to blood collection and harvesting colonic mucosa by scraping colon. Cytokine expression was measured by conducting ELISA (Cat #900-T54, PeproTech) for TNF-α on blood serum samples and qPCR for the cytokines, IL-1 (TaqMan, Mm00434228), IL-6 (TaqMan, Mm00446190), TNF-α (TaqMan, 00443258), iNOS (TaqMan, 00440502), on colonic mucosa samples.

TNF-α secretion [2] = test: Secreted TNF-α in conditioned media of BMDC (ELISA), LPS+ATP or LPS+Nigericin; assay type: cell-based; conditions: 63-500 nM, FIG. 2C
Procedure: (§1) FIG. 2A depicts western blot images showing the relative NLRP3 inflammasome activity of the compounds 22 (CLM-022) and 1 (CLM-001) by detecting the level of cellular ASC complex and the mature form of IL-1β (15 kDa) in a conditioned media of BMDCs treated with LPS (100 ng/ml) for 3 hours and then the compound at 50 nM, 100 nM, and 500 nM concentration for 30 min, followed by ATP or Nigericin. ASC monomer and β-Actin proteins were used as controls. FIG. 2B depict plots of results showing secreted IL-1β levels measured by ELISA using conditioned media of BMDC treated with the compound 22 or compound 1 at 63 nM, 125 nM, 250 nM, and 500 nM, under NLRP3 inflammasome activation induced either by LPS+ATP or LPS+Nigericin. FIG. 2C depict plots of results showing secreted TNF-α levels measured by ELISA using conditioned media of BMDC treated with the compound 22 or compound 1 at 63 nM, 125 nM, 250 nM, and 500 nM, under NLRP3 inflammasome activation induced either by LPS+ATP or LPS+Nigericin.
3. The secreted form of TNF-α, a NLRP3 inflammasome independent cytokine, induced by LPS+ATP or LPS+Nigericin were measured by ELISA assay using the conditioned media of BMDC treated with compound 1 (CLM-1) or compound 22 (CLM-022) at concentrations of 63, 125, 250, 500 nM under NLRP3 inflammasome activation induced either by LPS+ATP or LPS+Nigericin.

TNF-α secretion [3] = test: TNF-α secretion in THP-1 macrophages, LPS + Nigericin; assay type: cell-based; conditions: human THP-1 macrophages, FIG. 5D
Procedure: This example illustrates a comparative study of CLM-022 and MCC950 in inhibiting NLRP3 inflammasome activity in mouse and human macrophages.
To confirm the inhibitory effect of CLM-022 in human macrophages, THP-1 cells, a human leukemia monocytic cell line, were differentiated into macrophages using phorbol 12-myristate-13-acetate (PMA, 100 ng/ml) treatment for one day. The THP-1 macrophages were then treated with LPS (100 ng/ml) for 3 hours to induce the expression of inflammatory genes. Subsequently, the THP-1 cells were treated with CLM-022 or MCC950 in a dose range of 0-10 μM for 30 minutes. Then, to fully activate NLRP3-dependent inflammasome activity, Nigericin (10 μM) was added to the THP-1 cells for an additional 60 min.

NLRP3 inflammasome = test: Secreted IL-1β in conditioned media of BMDC (ELISA), LPS+ATP or LPS+Nigericin; assay type: cell-based; conditions: 63-500 nM, FIG. 2B
Procedure: as §1
1. […] After 30 minutes Nigericin (10 μM) or ATP (5 mM) was added (Signal 2) and the level of NLRP3-dependent inflammasome activity was determined by western blotting the treated cells with ASC complex (>48 kDa). […]

Q: What does the source list for `CC1=C(O)C(=O)C=C2C1=CC=C1[C@@]2(C)CC[C@@]2(C)[C@@H]3C[C@](C)(N(C)C(=O)C(=O)N(C)C)CC[C@]3(C)CC[C@]12C` [Compound 22, N′-[(2R,4aS,6aR,6aS,14aS,14bR)-10-hydroxy-2,4a,6a,6a,9,14a-hexamethyl-11-oxo-1,3,4,5,6,13,14,14b-octahydropicen-2-yl]-N,N,N′-trimethyl-oxamide]?
A: level of TNF-α in serum ([1]; 1 mg/kg i.p. 1 hour before LPS (25 mg/kg, i.p.), 4 hours post LPS, ELISA, FIG. 4A): decreased; gene expression of IL-1β, IL-6, TNF-α, and iNOS in the colon ([1]; 1 mg/kg i.p. 1 hour before LPS (25 mg/kg, i.p.), 4 hours post LPS, qPCR, FIG. 4B): markedly inhibited; inhibition of LPS-induced acute inflammation responses (IL-1, IL-6, TNF-α, iNOS in blood serum and colon mucosa) ([1]; 1 mg/kg i.p., LPS 25 mg/kg i.p., FIGS. 4A and 4B): efficiently suppressed expression of an inflammatory mediator and the inflammatory cytokines including IL-1, IL-6, TNF-α, and INOS in the blood serum and colon mucosa to levels comparable to or lower than the levels observed in the group administered celastrol (Compound 1); suppression of TNF-α secretion (TNF-α secretion [2]): no significant suppressive effect on TNF-α inflammatory cytokine secretion; inhibition of TNF-α secretion (TNF-α secretion [3]): but not TNF-α; inhibition of IL-1β secretion (NLRP3 inflammasome): more strongly inhibited IL-1β secretion induced by both LPS+ATP and LPS+Nigericin; also recorded: strongly inhibited IL-1β secretion via suppression of NLRP3 inflammasome

Source: patent publication US20260356879A1, “CELASTROL DERIVATIVES” (Celloram Inc., priority 2022, published 2026)
